From US5089476A, “Glutamic acid derivatives” (Roussel Uclaf, priority 1987, dated 1992)

Legend:
Assay type in all cases: cell-based, human
[1] = system: interleukin-1 (IL-1) production by monocytes; experiment: Interleukin-1 (IL-1) test on monocyte culture supernatants (mouse thymocyte co-mitogenic bioassay); details: thymidine incorporation by C3H/HeJ mouse thymocytes with PHA
Procedure: The mononuclear cells of the circulating blood of normal donors were separated by the classical technique described by Boyum using a Ficoll gradient. After being washed, the mononuclear cells were incubated at 37° C. for 1 hour in the proportion of 5×10^6 monocytes (NSE^+ cells) per ml of culture medium, 5 ml per culture bottle. The culture medium used in this experiment was composed of RPMI 1640 to which antibiotics and HEPES buffer had been added. After one hour, the non-adherent cells were removed by washing the bottles with medium previously brought to 37 C, and the adherent cells, composed essentially of monocytes (>90%), were cultured again in the presence of different amounts of test products in a PBS medium (Dulbecco) without Ca^2+ or Mg^2+. Culturing was continued for 24 or 48 hours and the cell supernatants were then withdrawn, centrifuged, aliquoted and stored either at -80° C. or at -20° C. The culture supernatants were replaced in the bottles by the same amount of pyrogen-free distilled water to Lyse the cells. […]
This test was first described by Gery et al in 1972 [Gery et al, 1972 Potentiation of the T Lymphocyte response to mitogens. […] The results were expressed as the difference between the pulses per minute incorporated by the cultures in the presence of supernatants and the pulses per minute incorporated by the control cultures.

monocytes = experiment: Stimulation of monocytic cells with an immunostimulant; details: for stimulation of monocytes: adherent blood monocytes of normal donors, cultured 24 or 48 hours with test product; for synergy with interferon-γ: in the presence of interferon-γ 10^3 U/ml, a dose at which IFN-γ alone was inactive
Procedure: The mononuclear cells of the circulating blood of normal donors were separated by the classical technique described by Boyum using a Ficoll gradient. After being washed, the mononuclear cells were incubated at 37° C. for 1 hour in the proportion of 5×10^6 monocytes (NSE^+ cells) per ml of culture medium, 5 ml per culture bottle. The culture medium used in this experiment was composed of RPMI 1640 to which antibiotics and HEPES buffer had been added. After one hour, the non-adherent cells were removed by washing the bottles with medium previously brought to 37 C, and the adherent cells, composed essentially of monocytes (>90%), were cultured again in the presence of different amounts of test products in a PBS medium (Dulbecco) without Ca^2+ or Mg^2+. Culturing was continued for 24 or 48 hours and the cell supernatants were then withdrawn, centrifuged, aliquoted and stored either at -80° C. or at -20° C. The culture supernatants were replaced in the bottles by the same amount of pyrogen-free distilled water to Lyse the cells. The Lysate was recovered, aliquoted and also stored at -20° C.

[2] = system: tumor necrosis factor (TNF) production by monocytes; experiment: Tumor Necrosis Factor (TNF) test on monocyte culture supernatants (toxicity on L-929 target cells); details: toxicity on L-929 cells with actinomycin D
Procedure: The mononuclear cells of the circulating blood of normal donors were separated by the classical technique described by Boyum using a Ficoll gradient. After being washed, the mononuclear cells were incubated at 37° C. for 1 hour in the proportion of 5×10^6 monocytes (NSE^+ cells) per ml of culture medium, 5 ml per culture bottle. The culture medium used in this experiment was composed of RPMI 1640 to which antibiotics and HEPES buffer had been added. After one hour, the non-adherent cells were removed by washing the bottles with medium previously brought to 37 C, and the adherent cells, composed essentially of monocytes (>90%), were cultured again in the presence of different amounts of test products in a PBS medium (Dulbecco) without Ca^2+ or Mg^2+. Culturing was continued for 24 or 48 hours and the cell supernatants were then withdrawn, centrifuged, aliquoted and stored either at -80° C. or at -20° C. The culture supernatants were replaced in the bottles by the same amount of pyrogen-free distilled water to Lyse the cells. The Lysate was recovered, aliquoted and also stored at -20° C. […]
The technique was sensitized by adding actinomycin D to the test. […] After 24 hours of culturing, the number of unlysed viable cells was measured by staining the plates with crystal violet and measuring the optical density of different wells on a multiscan reader.

Molecule | IL-1 production by monocytes [1] | stimulation of monocytes (monocytes) | synergy with interferon-γ (monocytes) | TNF production by monocytes [2] | activity of IFN-γ alone (monocytes; interferon-γ 10^3 U/ml alone)
C=C(CC(N)C(=O)O)CC(NC(=O)CC[C@@H](N)C(=O)O)C(=O)O (stereo partly drawn) [Example 1, 2-amino-6-(γ-D-glutamylamino)-4-methylene-heptanedioic acid] | stimulated | stimulated monocytes | synergy | stimulated | –
C=C(CC(NC(=O)CC[C@@H](N)C(=O)O)C(=O)O)CC(NC(=O)[C@H](C)N)C(=O)O (stereo partly drawn) [Example 2, 2-(L-Alanylamino)-6-(γ-D-glutamylamino)-4-methyleneheptanedioic acid] | stimulated | stimulated monocytes | synergy | stimulated | –
IFN-γ: interferon-γ (10^3 U/ml) added to monocyte cultures to test synergy (protein, UniProt P01579 24-161, looked up) Interferon gamma: QDPYVKEAENLKKYFNAGHSDVADNGTLFLGILKNWKEESDRKIMQSQIVSFYFKLFKNFKDDQSIQKSVETIKEDMNVKFFNSNKKKRDDFEKLTNYSVTDLNVQRKAIHELIQVMAELSPAAKTGKRKRSQMLFRG | – | – | – | – | inactive
